For 28 molecules, T/C results are on record in PubChem BioAssay AID330 (DTP/NCI, 2004).

The assay relates to P388 leukemia ip, CD2F1 mice, survival T/C. The experiment in a line: NCI In Vivo Anticancer Drug Screen. Data for tumor model P388 Leukemia (intraperitoneal) in CD2F1 (CDF1) mice. As to conditions: endpoint: median survival time, higher = longer survival. In outline: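 Mice carrying the transplanted tumor received test compound or vehicle. Survival was recorded in each group, and the value is the treated-group measurement divided by that of the vehicle-treated control group.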

Where [1] appears, read: dose: 25.0 mg/kg/injection, schedule: Q01DX009 (ip), vehicle: saline with Tween-80.
Where [2] appears, read: dose: 50.0 mg/kg/injection, schedule: Q01DX009 (ip), vehicle: saline with Tween-80.
Setting [3] is: dose: 100.0 mg/kg/injection, schedule: Q01DX009 (ip), vehicle: saline with Tween-80.
The mark [4] stands for this setting: dose: 100.0 mg/kg/injection, schedule: Q04DX003 (ip), vehicle: saline with Tween-80.
Where [5] appears, read: dose: 200.0 mg/kg/injection, schedule: Q04DX003 (ip), vehicle: saline with Tween-80.
Setting [6] is: dose: 400.0 mg/kg/injection, schedule: Q04DX003 (ip), vehicle: saline with Tween-80.
Setting [7] is: dose: 12.5 mg/kg/injection, schedule: Q01DX009 (ip), vehicle: saline with Tween-80.
Where [8] appears, read: dose: 6.25 mg/kg/injection, schedule: Q01DX005 (ip), vehicle: Klucel (hydroxypropylcellulose) (HPC).
The mark [9] stands for this setting: dose: 12.5 mg/kg/injection, schedule: Q01DX005 (ip), vehicle: Klucel (hydroxypropylcellulose) (HPC).
Setting [10] is: dose: 60.0 mg/kg/injection, schedule: Q01DX005 (ip), vehicle: saline with Tween-80.
[11] abbreviates: dose: 120.0 mg/kg/injection, schedule: Q01DX005 (ip), vehicle: saline with Tween-80.
Setting [12] is: dose: 240.0 mg/kg/injection, schedule: Q01DX005 (ip), vehicle: saline with Tween-80.
Where [13] appears, read: dose: 25.0 mg/kg/injection, schedule: Q01DX005 (ip), vehicle: Klucel (hydroxypropylcellulose) (HPC).
The mark [14] stands for this setting: dose: 3.13 mg/kg/injection, schedule: Q01DX009 (ip), vehicle: saline with Tween-80.
Setting [15] is: dose: 400.0 mg/kg/injection, schedule: Q01DX009 (ip), vehicle: saline with Tween-80.
The mark [16] stands for this setting: dose: 50.0 mg/kg/injection, schedule: Q01DX009 (ip), vehicle: saline.

SMILES strings stand for the structures. Where “and” joins values, the source holds several entries; their conditions need not be identical. Equal entries are not always repeated. Inconclusive results and toxic doses are left out.

On to `CCc1nc(N)nc(N)c1-c1ccc(N(C)Cc2ccccc2)c([N+](=O)[O-])c1`, for which the T/C is, setting by setting: (dose: 60.0 mg/kg/injection, schedule: Q01DX005 (ip), vehicle: Klucel (hydroxypropylcellulose) (HPC)) 116 % of control; (dose: 120.0 mg/kg/injection, schedule: Q01DX005 (ip), vehicle: Klucel (hydroxypropylcellulose) (HPC)) 120 % of control; (dose: 240.0 mg/kg/injection, schedule: Q01DX005 (ip), vehicle: Klucel (hydroxypropylcellulose) (HPC)) 185 % of control; (dose: 480.0 mg/kg/injection, schedule: Q01DX005 (ip), vehicle: Klucel (hydroxypropylcellulose) (HPC)) 205 % of control.
Turning to `CN(c1ccccc1)S(=O)c1ccccc1` (centres undefined), the T/C by setting is: under setting [1], 94 % of control; under setting [2], 103 % of control; under setting [3], 110 % of control.
As to `COc1ccc(NC(=O)C(c2ccccc2)c2ccccc2)cc1`, the T/C was 90 % of control under setting [4], 95 % of control under setting [5] and 100 % of control under setting [6].
With `N#Cc1ncc(Cl)c2ccccc12`, the T/C is 90 % of control (dose: 50.0 mg/kg/injection, schedule: Q01DX009 (ip), vehicle: suspension in saline); 87 % of control (dose: 100.0 mg/kg/injection, schedule: Q01DX009 (ip), vehicle: suspension in saline); 97 % of control (dose: 200.0 mg/kg/injection, schedule: Q01DX009 (ip), vehicle: suspension in saline).
Take `Nc1nc(N)c2nc(CNc3ccc(C(=O)NC(CCC(=O)O)C(=O)O)cc3)cnc2n1` (centres undefined): the T/C reads like this: (dose: 0.03 mg/kg/injection, schedule: Q01DX009 (ip), vehicle: clinical formulation) 105 % of control; (dose: 0.04 mg/kg/injection, schedule: Q01DX009 (ip), vehicle: clinical formulation) 120 % of control.
As to `O=C1CN(c2ccccc2)C(=O)CN1/N=C/c1ccc[nH]1`, the T/C was 95 % of control (dose: 6.25 mg/kg/injection, schedule: Q01DX005 (ip), vehicle: saline with Tween-80); 100 % of control (dose: 12.5 mg/kg/injection, schedule: Q01DX005 (ip), vehicle: saline with Tween-80); 97 % of control (dose: 25.0 mg/kg/injection, schedule: Q01DX005 (ip), vehicle: saline with Tween-80).
For the molecule `O=[n+]1c2c(n([O-])c3cc(Cl)c(Cl)cc31)CCCC2`, the T/C under setting [7] is 87 % of control; the T/C under setting [1] is 89 % of control; the T/C under setting [2] is 98 % of control and 86 % of control.
As to `CC(C)(C)NCC(CN1CCOCC1)C(=O)c1ccccc1` (centres undefined), the T/C is 99 % of control under setting [8] and 96 % of control under setting [9].
In the case of `N#CC(C#N)=CNc1ccccc1C(=O)NCCCn1ccnc1`, the T/C is 93 % of control under setting [10], 93 % of control under setting [11] and 95 % of control under setting [12].
As to `O=C(/C=C/c1c(Cl)cccc1Cl)c1ccc(Cl)cc1`, the T/C reads like this: under setting [4], 100 % of control; under setting [5], 100 % of control; under setting [6], 109 % of control.
For `CCOC(=O)C1(c2ccccc2)c2c(cnc3ccccc23)C(=O)N1C` (centres undefined), the T/C by setting is: under setting [10], 101 % of control; under setting [11], 97 % of control; under setting [12], 97 % of control.
In the case of `Cc1ccc(C(O)c2cnc(C)n2Cc2ccccc2)cc1` (centres undefined), the T/C under setting [10] was 100 % of control, the T/C under setting [11] is 98 % of control and the T/C under setting [12] is 92 % of control.
Regarding `Cc1cc(SSc2cc(C)nc(N)n2)nc(N)n1`, the T/C reads like this: (dose: 100.0 mg/kg/injection, schedule: Q01DX001 (ip), vehicle: saline with Tween-80) 86 % of control; (dose: 200.0 mg/kg/injection, schedule: Q01DX001 (ip), vehicle: saline with Tween-80) 86 % of control.
With `O=S1(=O)CCC(N(/N=C/c2ccco2)c2ccccc2)C1` (centres undefined), the T/C runs as follows: (dose: 50.0 mg/kg/injection, schedule: Q01DX005 (ip), vehicle: saline with Tween-80) 95 % of control; (dose: 100.0 mg/kg/injection, schedule: Q01DX005 (ip), vehicle: saline with Tween-80) 101 % of control; (dose: 200.0 mg/kg/injection, schedule: Q01DX005 (ip), vehicle: saline with Tween-80) 101 % of control.
Take `N#C/C(N)=C(/N)C#N`: the T/C is, setting by setting: under setting [7], 100 % of control and 107 % of control; under setting [1], 102 % of control and 111 % of control; under setting [2], 104 % of control and 117 % of control and 124 % of control.
As to `O=C1NC(=O)C2(N1)C1CCCC2C(c2ccccc2)NC1c1ccccc1` (centres undefined), the T/C runs as follows: under setting [10], 96 % of control; under setting [11], 91 % of control; under setting [12], 90 % of control.
Regarding `C[CH2][Ge]([CH2]C)[O]C(=O)C(=O)[O][Ge]([CH2]C)[CH2]C`, the T/C is, setting by setting: under setting [9], 100 % of control; under setting [13], 103 % of control; (dose: 50.0 mg/kg/injection, schedule: Q01DX005 (ip), vehicle: Klucel (hydroxypropylcellulose) (HPC)) 118 % of control.
With `C(=C\c1ccc2cc(C3=NCCN3)[nH]c2c1)/c1ccc(Oc2ccc(C3=NCCN3)cc2)cc1` (tested in a mixture with another compound), the T/C was 111 % of control under setting [8], 97 % of control under setting [9] and 100 % of control under setting [13].
Turning to `CC(C)C(=O)c1ccco1`, the T/C under setting [14] was 90 % of control; the T/C (dose: 6.25 mg/kg/injection, schedule: Q01DX009 (ip), vehicle: saline with Tween-80) was 100 % of control; the T/C under setting [7] was 100 % of control.
With `CCc1nc(N)nc(N)c1-c1ccc(OC)c(N=[N+]=[N-])c1`, the T/C runs as follows: under setting [10], 97 % of control; under setting [11], 100 % of control; under setting [12], 117 % of control.
`O=C(O)C1C(C(=O)O)C2(Cl)C(Cl)=C(Cl)C1(Cl)C2(Cl)Cl.[Co]` (centres undefined): the T/C (dose: 50.0 mg/kg/injection, schedule: Q01DX001 (ip), vehicle: saline) was 109 % of control; the T/C (dose: 100.0 mg/kg/injection, schedule: Q01DX001 (ip), vehicle: saline) is 109 % of control; the T/C (dose: 200.0 mg/kg/injection, schedule: Q01DX001 (ip), vehicle: saline) was 109 % of control.
As for `O=C(O)c1cc(-c2ccc(-c3ccc(-c4cc(C(=O)O)c5cc(Cl)ccc5n4)cc3)cc2)nc2ccc(Cl)cc12`, the T/C was 92 % of control under setting [3]; 94 % of control (dose: 200.0 mg/kg/injection, schedule: Q01DX009 (ip), vehicle: saline with Tween-80); 109 % of control under setting [15].
On to `CCN(CC)CCN1C(=O)CN=C(c2ccc[nH]2)c2cc(Cl)ccc21`, for which the T/C by setting is: under setting [3], 90 % of control; under setting [4], 100 % of control; under setting [5], 100 % of control; under setting [15], 95 % of control; under setting [6], 95 % of control.
For the molecule `Nc1nc(N)c2c(ccc3nccc32)[nH]1`, the T/C reads like this: (dose: 6.25 mg/kg/injection, schedule: Q01DX005 (ip), vehicle: saline) 103 % of control; (dose: 12.5 mg/kg/injection, schedule: Q01DX005 (ip), vehicle: saline) 103 % of control; (dose: 25.0 mg/kg/injection, schedule: Q01DX005 (ip), vehicle: saline) 110 % of control.
Take `c1ccc2c(c1)Cc1c(-c3noc4c3Cc3ccccc3-4)noc1-2`: the T/C runs as follows: (dose: 60.0 mg/kg/injection, schedule: Q01DX005 (ip), vehicle: Klucel + Tween-80) 100 % of control; (dose: 120.0 mg/kg/injection, schedule: Q01DX005 (ip), vehicle: Klucel + Tween-80) 90 % of control; (dose: 240.0 mg/kg/injection, schedule: Q01DX005 (ip), vehicle: Klucel + Tween-80) 91 % of control.
In the case of `COC(=O)C[n+]1ccc2ccccc2c1`, the T/C reads like this: under setting [16], 99 % of control; (dose: 100.0 mg/kg/injection, schedule: Q01DX009 (ip), vehicle: saline) 99 % of control; (dose: 200.0 mg/kg/injection, schedule: Q01DX009 (ip), vehicle: saline) 95 % of control.
`[Co].[N-]=C=S.[N-]=C=S.[N-]=C=S.[N-]=C=S`: the T/C was 101 % of control (dose: 9.5 mg/kg/injection, schedule: Q01DX009 (ip), vehicle: saline); 93 % of control (dose: 19.0 mg/kg/injection, schedule: Q01DX009 (ip), vehicle: saline); 104 % of control (dose: 38.0 mg/kg/injection, schedule: Q01DX009 (ip), vehicle: saline); 161 % of control under setting [16].
Take `O=C1c2ccccc2C(=O)C(Cl)C1Cl` (centres undefined): the T/C is, setting by setting: (dose: 1.56 mg/kg/injection, schedule: Q01DX009 (ip), vehicle: saline with Tween-80) 100 % of control; under setting [14], 101 % of control.
